Source: patent publication US9856348B2, “Multifunctional degradable nanoparticles with control over size and functionalities” (Vanderbilt University, priority 2007, dated 2018)

Tests used:
[1] = tested on: mice with microbead-elevated intraocular pressure
Procedure: Two groups of mice (N=3 each) were compared to determine the effect of a single intravitreal injection of brimonidine-laced nanoparticle relative to a single topical drop (eyedrop) of clinical-grade brimonidine. For each mouse, intraocular pressure (IOP) was acutely elevated by an injection (1 μl) of polystyrene microbeads into the anterior chamber of the eye. This induces a 35-40% elevation in IOP that persists for 3-4 weeks. […] IOP was tracked using TonoPen XL measurements until any lowering effect was dissipated.

[2] = tested on: human microvascular endothelial cells (HMEC); assay: Internalization of FITC-dendrimer conjugates, temperature effect and controls; assay type: cell-based; details: 10 uM, 60 min, 37° C.
Procedure: Internalization of FD-1 and FD-2 in mammalian cells was assessed using two different cell lines and a previously described method [Futaki, S.; Nakase, I.; Suzuki, T.; Youjun, Y.; Sugiura, Y. Biochemistry 2002, 41, 7925.] with NIH-3T3 fibroblasts and HMEC (human microvascular endothelial cells) and a Zeiss LSM 510 confocal microscope. […] [Futaki, S.; Nakase, I.; Suzuki, T.; Youjun, Y.; Sugiura, Y. Biochemistry 2002, 41, 7925.; Vivès, E.; Brodin, P.; Lebleu, B. J. Biol. Chem. 1997, 272, 16010.] Furthermore, the extent of internalization increased in an incubation time-dependent manner, and it was observed that after just 10 min, the fluorescence intensity of cells treated with FD-2 was near saturation. […] L. Org. Lett. 2005, 7, 4815.] but also regulate the subcellular localization of the molecule and its putative cargo. […] Therefore, the dendrimer with a hexyl spacer crosses the cell membrane faster than the molecule with an ethyl chain. On the other hand, the localization patterns can also be controlled by the length of the spacer. FD-1 with the short spacer appeared to be localized everywhere in the cell, but highly concentrated in the nucleus. […] These translocation features of guanidinlyated dendritic scaffolds as carriers can be important for intracellular delivery of cargo molecules to specific subcellular compartments (e.g., cytosol or nucleus). […]

Row | Compound | IOP one day after application ([1]; single application (1 μl) on day 4 after microbead injection) | time after administration at which IOP returned to elevated levels ([1]; single topical application (1 μl)) | fluorescence of treated cells (control experiments) [2]
1 | Brc1c(NC2=NCCN2)ccc2nccnc12 [topical brimonidine, 5-Bromo-N-(4,5-dihydro-1H-imidazol-2-yl)quinoxalin-6-amine] | normal levels | Six | –
2 | fluorescein isothiocyanate [free FITC] | – | – | no
